Measurements as given in patent US20180265867A1, “NUCLEIC ACID MOLECULES WITH ENHANCED ACTIVITY” (priority 2015, published 2018).
d = 2'-deoxy (DNA); r = 2'-OH (RNA)

Key:
MG63 cells = test: Flow cytometry uptake kinetics and ODN2006 blocking in MG63 cells; format: cell-based, human
Method: To determine cpRNA cellular uptake kinetics, FACS experiments were repeated as mentioned above using MG63 cells, where Cy3-cpRNA was treated for different time points. Briefly, Cy3-cpRNA (50 nM) was added to cells, followed by incubation for 0.5 h, 1 h, 1.5 h, 2 h, 3 h and 4 h respectively. The cells were subsequently trypsinised and analyzed by FACS as mentioned above.
To perform […] blocking studies, seeded MG63 cells were incubated with 600 nM 3′-FITC labeled ODN2006 for 1 h, followed by addition of 50 nM cpRNA. Cells were incubated for additional 0.5 h, 1 h, 1.5 h, 2 h, 3 h and 4 h respectively, trypsinised and analyzed by FACS analysis as mentioned above.
To verify if the uptake mechanism of cpRNA was analogous to viral RNA and the RNA mimic polyriboinosinic:polyribocytidylic acid or poly(I:C), blocking studies were performed using the Btype single-stranded DNA sequence ODN2006 which share a common uptake receptor. This synthetic phosphorothioate modified oligo, though initially identified as a TLR9 agonist, blocks cellular uptake of viral RNA and poly(I:C) by preferentially competing with the common RNA uptake receptor. Blocking experiment were performed by pre-incubating the cells with FITC labeled ODN2006 for 1 h, followed by the addition of Cy3-labeled cpRNA. The blocking studies and cellular uptake was monitored using FACS analysis at different time points for up to 4 h. As a control experiment, the uptake kinetics was performed in the absence of FITC labeled ODN2006. […] These experiments verified the involvement of an alternate uptake mechanism and indicated the presence of a ubiquitous RNA capture receptor that required ˜1 h of maturation time before the endocytosis process could initiate.

GAPDH = test: Energy dependence of cpRNA uptake: transfection at 4° C. or 37° C., GAPDH knockdown; format: cell-based, human; settings: carrier-free
Method: To determine, if cellular uptake of cpRNA is an energy dependent endocytosis process, transfection experiments were performed at 4° C. and 37° C. Briefly, HCT116, HOB and MG63 cells were plated and incubated with cpRNA (dT5 or dA5 or scrambled siRNA sequence) at 4° C. or 37° C. for 4 h. After 4 h, medium was replaced with fresh medium and the cells were incubated for additional 24 h. Untreated cells were used as controls. Each transfection was performed in triplicate. […] Cellular uptake using these siRNA sequences was reduced by nearly 30% when experiments were performed at 4° C., see FIG. 4.
Next, it was investigated if the cellular uptake mechanism of cpRNA occurred by endocytosis. Transfection experiments were performed with dT5-modified cpRNA at 4° C. and found lower RNAi activity (50% gene knockdown) compared to activity at 37° C. […] Upon endocytosis, the 5-nt overhang length participated in an unknown endosomal escape mechanism that promoted cytosol transport of RNA. […] TLR-7, -8 and -9, selectively bind single-stranded DNA or RNA sequences with TLR-7 and -8 preferentially bind U and G rich sequence while TLR-9 bind CpG nt repeats. TLR3, on the other hand, nonspecifically binds the 21mer RNA duplex after dimerization of the receptor to form a 2:1 TLR3-RNA complex. […]

Substance: dT5: GAPDH siRNA, sense SEQ ID NO: 3 with dT5 3′-overhang, antisense SEQ ID NO: 2 with dT2 (sense CCGAGCCACAUCGCUCAGATTTTT; antisense UCUGAGCGAUGUGGCUCGGTT; sense: sugars from the 5' end r19 d5, backbone not given here; antisense: sugars from the 5' end r19 d2, backbone not given here)
- effect of ODN2006 on cellular uptake (MG63 cells; MG63 cells pre-incubated 1 h with 600 nM FITC labeled ODN2006): did not inhibit uptake
- time after which cellular uptake was initiated (MG63 cells; MG63 cells, 50 nM, 37° C.): ~1 h
- time in which uptake finished after initiation (MG63 cells; MG63 cells, 50 nM, 37° C.): 2 h
- GAPDH gene knockdown at 4° C. (GAPDH; incubation at 4° C. for 4 h, then 24 h): 50%
- GAPDH gene knockdown at 37° C. (GAPDH; incubation at 37° C.): 80%
